The values that follow come from patent publication US20090221573A1, “Use of Activators of Soluble Guanylate Cyclase for Promoting Wound Healing” (Bayer HealthCare AG, priority 2005, published 2009).

Where two headings read alike, the source gives them in different places.

This experiment has as its system smooth muscle cells of the human coronary artery. As to the kind of experiment: Inhibition of the horizontal migration of smooth muscle cells (wounded monolayer). Format: cell-based. The conditions noted are these: read-out: Inhibition of the horizontal migration of smooth muscle cells of the human coronary artery, IC50. The protocol:
Smooth muscle cells of the human coronary artery are seeded in a 6-well plate (1.5×10^5 cells/well) (Clonetics) and cultured in SmGM2 medium (Clonetics) for 48 h. Before the plates are used, the wells are coated with vitronectin (50 ng/cm^2; Gibco BRL). Half of the confluent cell monolayer is removed with the aid of a cell scraper (wounding). In the cell-free region, the vitronectin coating is at least 50% retained in this case. For the test, unless mentioned otherwise, the culture medium is replaced by MCDB-131/0.2% BSA (Gibco/BRL) medium. The test substances are added in various concentrations, and the migration distance in the cell-free region is followed with the aid of a microscope over 24 h and 48 h. Each measurement point represents the average of four measured regions. PDGF, as potent chemotactic factor for SMC, is used as positive control (1 nM, 10 nM, R&D systems). The RGD tripeptide (Bachem) is employed to inhibit the integrin-induced migration. To determine the antagonistic activity of the test substances, the cells are stimulated in the presence of the substance with 1 nM or 10 nM PDGF, and the migration distances are determined in relation to the PDGF-induced migration distances.

Consider `COC(=O)Nc1c(N)nc(-c2nn(Cc3ccccc3F)c3ncccc23)nc1N` [IVa], for which, for the setting “48 h”, the IC50 stood at 30 nM.

For `O=C(O)CCCCN(CCc1ccccc1OCc1ccc(CCc2ccccc2)cc1)Cc1ccc(C(=O)O)cc1` [Compound I], under “48 h”, the IC50 amounted to 5 nM.

Take `COC(=O)N(C)c1c(N)nc(-c2nn(Cc3ccccc3F)c3ncccc23)nc1N` [IV]: the IC50 (incubation time 48 h) was determined as 10 nM.
